# Source: patent publication US20260345517A1, “DOSAGE REGIMENS FOR TREATING STARGARDT DISEASE” (Alkeus Pharmaceuticals, Inc., priority 2024, published 2026)
# “Also recorded” adds a separate entry of the source.
# Assays:
# [1] = Open-label multiple dose pharmacokinetic study in healthy volunteers (percentage of deuterated vitamin A in plasma, LC/MS); type: in vivo, human; settings: for % D3 Vitamin A: average over 24 hours, from AUC
# Protocol: Study Design: This was an open-label, non-randomized, multiple dose study in healthy volunteers aged 21 to 70 years of age (inclusion criteria). Subjects who met all entrance criteria at screening were invited to receive the study medication. There were six treatment arms: 2 mg/day, 3.5 mg/day, 5 mg/day, 7 mg/day, 10 mg/day and 14 mg/day gildeuretinol acetate. For the four lower dose groups, the dose regimen was one capsule per day, orally, to be taken at home, preferably in the evening unless a different time was preferred by the subject. For the two highest doses, the dose regimen was two capsules per day, one in the morning and one in the evening, although subjects with a preference to take both capsules at once were offered to do so. After taking the 1st dose at the study site, subjects were invited to return two and four weeks after starting the treatment.
# The clinical staff made periodic calls to monitor adverse events and ensure subject compliance. In addition, a text message was sent daily to remind subjects to take their medication. Subjects were instructed to avoid foods that contain large amounts of vitamin A (such as liver-based products), including supplements containing vitamin A, and to report their vitamin A intake by answering a daily text message diary. Fruits and vegetables were permitted without restriction.
# Deuterated retinol (gildeuretinol) (“D3”) and non-deuterated retinol (“Do”) and other vitamin A metabolites were measured to calculate the percentage of deuterated vitamin A in plasma. For all treatment groups, plasma samples were collected at baseline, 14±1 days (“2 weeks”) and 28±1 days (“4 weeks”) after initiation of treatment. Blood samples were usually collected following at least 10 hours of fasting (including last gildeuretinol acetate intake), preferably in the morning. For the 7 mg/day and the 14 mg/day groups only, after the first and last dose, blood samples were collected every 4 hours for 24 hours. A liquid chromatography/mass spectrometry assay was used to measure the metabolite levels.
# Table 2 provides % D3 Retinol (gildeuretinol, i.e. the percentage of deuterated retinol (gildeuretinol) over total retinol (as deuterated+non-deuterated) in plasma measured 12-24 hours following gildeuretinol acetate intake.
# Pharmacokinetic Results (integrated levels over 24 hours post dosing): total vitamin A in plasma, both deuterated (gildeuretinol) and non-deuterated (retinol), was measured every 4 hours following administration of 7 mg or 14 mg at the first dose, and following administration of the 28th dose (4 weeks of daily treatment). The area under the curve (AUC) was calculated and the % deuterated % D3 of total vitamin A (as retinol and gildeuretinol) was computed as an average over 24 hours.
# [2] = system: Stargardt disease patients; test: TEASE-1: growth rate of atrophic retinal lesions by fundus autofluorescence imaging; type: in vivo, human; parameters: Percentage Slowing of Atrophic Retinal Lesion Growth Rate With Gildeuretinol Acetate: concentration or dose not given beside the values; settings: for effect on retinal degeneration / growth of atrophic retinal lesions (in words): 14 to 24 mg daily, up to 24 months, vs placebo and natural history
# Protocol: The Tolerability and Effects of gildeuretinol acetate in Stargardt Disease (Clinical trial group 1 also known as TEASE-1) was a 24-month, multicenter, double-masked, placebo-controlled trial designed to evaluate the efficacy and safety of daily oral gildeuretinol acetate in slowing the growth of atrophic retinal lesions in Stargardt disease patients. The trial was conducted at multiple sites in the United States (NCT02402660).
# Patients 12 years or older, clinically diagnosed with Stargardt disease, with at least one ABCA4 mutation, at least one eye presenting with well-demarcated areas of reduced fundus autofluorescence, and with any visual acuity, were eligible.
# Patients were randomized to gildeuretinol acetate 14 mg capsules, gildeuretinol acetate 24 mg capsules, or placebo capsules, to be taken once daily for one year. After one year, 50% of randomly selected patients receiving placebo were crossed over in a 1:1 ratio to gildeuretinol acetate 14 mg capsules or gildeuretinol acetate 24 mg capsules for a second year.
# Gildeuretinol acetate and placebo capsules were identical appearing capsules. Patients were advised to avoid vitamin A-containing supplements and liver-based products. Fruits and vegetables contain beta-carotene, not preformed vitamin A, and could be consumed without limitation. Trial visits occurred at 8 weeks and 6, 12, 18, and 24 months following screening and randomization.
# Deidentified retinal images of patients not enrolled in the trial were included as a natural history cohort. This natural history cohort comprised patients diagnosed with Stargardt disease of any age, with two or more longitudinal fundus autofluorescence images taken at least four months apart over a maximum period of 2.5 years.
# The prespecified primary efficacy endpoint was the growth rate of the square root area of atrophic retinal lesions measured by fundus autofluorescence retinal imaging comparing gildeuretinol versus the untreated arm (placebo combined with natural history). Only well-delineated and homogeneous retinal atrophic lesions≥0.2 mm^2 with a summed area≥0.5 mm^2 were included in the primary analysis.
# The primary endpoint analysis used a linear mixed-effect model (LMEM) with repeated measures, conferring a higher power to detect smaller effects. All observed data, including both eyes, were utilized. Treatment duration was computed as a continuous measure for each visit based on years since randomization. Adjustments for baseline retinal atrophy used the baseline atrophic retinal lesion size as a fixed effect in the LMEM. Additional fixed effects included treatment arm, treatment duration, and interaction between the treatment arm and treatment duration. Random effects included patient, eye, grader to adjust for correlation between eyes within a patient, graders' assessment of an eye, and observations of the same eye over time. A random effect slope term was added to the effect of treatment duration. Patients who crossed over to gildeuretinol acetate after year one were included in the untreated arm from baseline to year one, then in the gildeuretinol acetate arm from […] upon crossing over to gildeuretinol acetate. The full analysis set (FAS) comprised all randomized patients who received at least one dose of the study drug.
# Growth rates of atrophic retinal lesions were computed as two segmented lines over the 24-month treatment period; the first segment was between 0 and 6 months, and the second was between 6 and 24 months. All available data between 0 and 24 months was used to compute the slope of each segment. The primary efficacy endpoint was the slope of the second segment. No constraints were imposed on the Y-intercept. All growth rates were calculated on a per-year basis.
# No imputations were made for missing data because the LMEM yields valid inferences under the assumption of a missing-at-random mechanism. […]
smiles,measurement,setting,value
"CC(=O)OC/C=C(C)/C=C/C=C(C)/C=C/C1=C(C)CCCC1(C)C [gildeuretinol acetate, C20-D3-retinol acetate]",% D3 Vitamin A,"[1]; 7 mg/day, 1st dose",38%
same,% D3 Vitamin A,"[1]; 7 mg/day, 28th dose",75%
same,average percentage of deuterated plasma vitamin A of total vitamin A (retinol + gildeuretinol),"[1]; 14 mg once daily, after 4 weeks",85%
same,% D3 Vitamin A,"[1]; 14 mg/day, 1st dose",52%
same,% D3 Vitamin A,"[1]; 14 mg/day, 28th dose",85%
same,effect on retinal degeneration / growth of atrophic retinal lesions (in words),[2],"met its prespecified primary efficacy endpoint, slowing the mean growth rate of atrophic retinal lesions relative to placebo and natural history; also recorded: slowed the expansion of retinal atrophic lesions; also recorded: slowed the progression of retinal degeneration; also recorded: slows retinal degeneration"
same,effect on retinal degeneration / growth of atrophic retinal lesions (in words),[2]; listed as Gildeuretinol acetate,"met its prespecified primary efficacy endpoint, slowing the mean growth rate of atrophic retinal lesions"
same,Percentage Slowing of Atrophic Retinal Lesion Growth Rate With Gildeuretinol Acetate,[2]; crossover patients: 12 months placebo vs. 12 months treatment,21%
same,estimated treatment effect (slowing of atrophic retinal lesion growth),[2]; depending on the calculation method,20% to 30
same,Percentage Slowing of Atrophic Retinal Lesion Growth Rate With Gildeuretinol Acetate,"[2]; excluding 2 natural history cases < 18 years old, 9 natural histories > 60 years old",21%
same,Percentage Slowing of Atrophic Retinal Lesion Growth Rate With Gildeuretinol Acetate,[2]; excluding 3 randomized patients with one confirmed mutation,20%
same,Percentage Slowing of Atrophic Retinal Lesion Growth Rate With Gildeuretinol Acetate,[2]; excluding 13 natural history cases without any confirmed ABCA4 mutations and 6 with one confirmed mutation,20%
same,Percentage Slowing of Atrophic Retinal Lesion Growth Rate With Gildeuretinol Acetate,[2]; excluding 16 natural histories with only two follow up time points,20%
same,Percentage Slowing of Atrophic Retinal Lesion Growth Rate With Gildeuretinol Acetate,"[2]; excluding natural history, randomized patients only, one slope (mm^2)",30%
same,Percentage Slowing of Atrophic Retinal Lesion Growth Rate With Gildeuretinol Acetate,"[2]; excluding natural history, randomized patients only, two slopes (mm^2)",23%
same,growth rate of atrophic retinal lesions,"[2]; gildeuretinol acetate arm (14 mg and 24 mg pooled), square root area, slope 6 to 24 months",0.19 mm/year
same,Percentage Slowing of Atrophic Retinal Lesion Growth Rate With Gildeuretinol Acetate,[2]; using a single-slope from 0 to 24 months (mm^2),31%
same,Percentage Slowing of Atrophic Retinal Lesion Growth Rate With Gildeuretinol Acetate,[2]; using untransformed areas of atrophic lesions (mm^2),28%
same,difference in growth rate of atrophic retinal lesions versus control,"[2]; vs placebo + natural history, 95% CI 0.03 to 0.07",0.05 mm/year
